The record followed here is ChEMBL document CHEMBL1126185, “2-(N'-alkylidenehydrazino)adenosines: potent and selective coronary vasodilators” (J Med Chem, 1992).

In one assay the target is T1, Adenosine receptor A1 (Cavia porcellus, UniProt P47745).
T1 sequence (P47745 whole entry): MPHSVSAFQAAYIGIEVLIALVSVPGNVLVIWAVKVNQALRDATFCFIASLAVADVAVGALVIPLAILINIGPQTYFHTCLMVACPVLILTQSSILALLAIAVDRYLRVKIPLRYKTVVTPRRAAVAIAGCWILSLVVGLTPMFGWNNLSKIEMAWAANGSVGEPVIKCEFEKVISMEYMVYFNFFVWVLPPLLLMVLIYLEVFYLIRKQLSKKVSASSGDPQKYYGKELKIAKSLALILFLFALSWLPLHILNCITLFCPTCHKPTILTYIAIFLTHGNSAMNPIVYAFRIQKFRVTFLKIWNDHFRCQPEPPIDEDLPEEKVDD
Put plainly: In vitro prolonging of the stimulus-QRS interval in guinea pig heart.

The target in assay [1] is Adenosine A2 receptor (Cavia porcellus). Nature of the assay: In vitro effect on coronary vasodilation in guinea pig heart.

For `Nc1nc(N/N=C/C2=CCCCC2)nc2c1ncn2C1O[C@H](CO)[C@@H](O)[C@H]1O` (stereo partly specified), the EC50 at Adenosine receptor A1 was 17.4 µM.
As for `C/C=N/Nc1nc(N)c2ncn(C3O[C@H](CO)[C@@H](O)[C@H]3O)c2n1` (stereo partly specified), the EC50 on Adenosine receptor A1 is 3.63 µM. Further, the “-Log EC50” value in assay [1] was found to be 7.12.
As to `CCCC/C=N/Nc1nc(N)c2ncn(C3O[C@H](CO)[C@@H](O)[C@H]3O)c2n1` (stereo partly specified), at Adenosine receptor A1, the EC50 is 25.1 µM. The “-Log EC50” value in assay [1] stood at 8.99.
In the same order, the values of `Nc1nc(NCCC2CCCCC2)nc2c1ncn2C1O[C@H](CO)[C@@H](O)[C@H]1O` (stereo partly specified) are 12.3 µM and 8.72.
With `CC(C)C/C=N/Nc1nc(N)c2ncn([C@@H]3O[C@H](CO)[C@@H](O)[C@H]3O)c2n1`, at Adenosine receptor A1, a half-maximal effect (EC50) was put at 20.9 µM. Also, the “-Log EC50” value in assay [1] amounted to 9.33.
With `CC1(C)C2CC=C(/C=N/Nc3nc(N)c4ncn(C5O[C@H](CO)[C@@H](O)[C@H]5O)c4n3)C1C2` (stereo partly specified), at Adenosine receptor A1, the midpoint of the response, the EC50, lay at 25.7 µM.
Regarding `Nc1nc(N/N=C/CC2CCCCC2)nc2c1ncn2C1O[C@H](CO)[C@@H](O)[C@H]1O` (stereo partly specified), on Adenosine receptor A1, it took 9.77 µM to reach a half-maximal effect (EC50). Moreover, the “-Log EC50” value in assay [1] is listed as 9.16.
Regarding `Nc1nc(N/N=C/C2CCCCC2)nc2c1ncn2[C@@H]1O[C@H](CO)[C@@H](O)[C@H]1O` [BINODENOSON], the EC50 at Adenosine receptor A1 was 3.55 µM.
`Nc1nc(N/N=C/CCC2CCCCC2)nc2c1ncn2C1O[C@H](CO)[C@@H](O)[C@H]1O` (stereo partly specified) gave an EC50 on Adenosine receptor A1 of 66.1 µM.
As to `CCC(/C=N/Nc1nc(N)c2ncn(C3O[C@H](CO)[C@@H](O)[C@H]3O)c2n1)CC` (stereo partly specified), on Adenosine receptor A1, it took 11 µM to reach a half-maximal effect (EC50). Further, the “-Log EC50” value in assay [1] turned out to be 8.24.
`Nc1nc(N/N=C/C2=CC3CCC2C3)nc2c1ncn2C1O[C@H](CO)[C@@H](O)[C@H]1O` (stereo partly specified) gave an EC50 at Adenosine receptor A1 of 20.4 µM. Also, the “-Log EC50” value in assay [1] came out at 8.48.
In the same order, the values of `CC/C=N/Nc1nc(N)c2ncn(C3O[C@H](CO)[C@@H](O)[C@H]3O)c2n1` (stereo partly specified) are 13.5 µM and 7.88.
In the case of `NNc1nc(N)c2ncn(C3O[C@H](CO)[C@@H](O)[C@H]3O)c2n1` (stereo partly specified), the EC50 at Adenosine receptor A1 was 20 µM.
At Adenosine receptor A1, `CCC/C(C)=N/Nc1nc(N)c2ncn(C3O[C@H](CO)[C@@H](O)[C@H]3O)c2n1` (stereo partly specified) showed an EC50 of 16.6 µM. Further, in assay [1], the “-Log EC50” value is given as 8.7.
As to `Nc1nc(NCCC2=CCCCC2)nc2c1ncn2C1O[C@H](CO)[C@@H](O)[C@H]1O` (stereo partly specified), the EC50 at Adenosine receptor A1 was 22.9 µM. Also, the “-Log EC50” value in assay [1] was determined as 8.65.
In the same order, the values of `CC(C)(C)/C=N/Nc1nc(N)c2ncn(C3O[C@H](CO)[C@@H](O)[C@H]3O)c2n1` (stereo partly specified) are 25.1 µM and 7.46.
The corresponding values for `CCC(CC)=NNc1nc(N)c2ncn(C3O[C@H](CO)[C@@H](O)[C@H]3O)c2n1` (stereo partly specified) are 8.91 µM and 6.75.
The corresponding values for `CC(C)=NNc1nc(N)c2ncn(C3O[C@H](CO)[C@@H](O)[C@H]3O)c2n1` (stereo partly specified) are 12 µM and 7.3.
`CC(C)/C=N/Nc1nc(N)c2ncn(C3O[C@H](CO)[C@@H](O)[C@H]3O)c2n1` (stereo partly specified) gave an EC50 at Adenosine receptor A1 of 12.6 µM. The “-Log EC50” value in assay [1] worked out at 8.13.
`Nc1nc(N/N=C/C2CC=CCC2)nc2c1ncn2C1O[C@H](CO)[C@@H](O)[C@H]1O` (stereo partly specified): a half-maximal response at Adenosine receptor A1 (EC50) required 7.24 µM.
Turning to `CCC/C=N/Nc1nc(N)c2ncn(C3O[C@H](CO)[C@@H](O)[C@H]3O)c2n1` (stereo partly specified), at Adenosine receptor A1, the concentration for a half-maximal effect (EC50) was 11.5 µM. For the same compound, the “-Log EC50” value in assay [1] worked out at 8.54.

As usually defined, the EC50 is the concentration at which the effect is half-maximal. Read a low EC50 as a more potent agent.
